These results are taken from PubChem BioAssay (NCI).

Structures are written as SMILES.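 Cells were grown in 96-well plates and exposed to each compound for 48 hours at five concentrations; endpoints were interpolated linearly between bracketing concentrations, or set to the highest concentration if not reached. TGI is the concentration that stops growth completely.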

Some test systems named below: 786-0 renal; CAKI-1 renal; CCRF-CEM leukemia; HCC-2998 colon; HCT-116 colon; HOP-92 NSCLC; HT29 colon; IGROV1 ovarian; MDA-MB-231 breast; MDA-N; NCI-H23 lung; NCI-H522 lung; NCI/ADR-RES ovarian; RPMI-8226 leukemia; SF-268 CNS; SK-MEL-5 melanoma; SNB-19 CNS; UACC-257 melanoma; UACC-62 melanoma; UO-31 renal.
Holding throughout (assay): NCI-60 cell line screen, 48 h

In the case of `CN(C)C(=O)c1nnsc1NN=O`, the TGI in the assay with 786-0 renal, in the assay with CAKI-1 renal, in the assay on CCRF-CEM leukemia, in the assay with HCC-2998 colon, in the assay on HCT-116 colon and in the assay with HOP-92 NSCLC was above 100 µM each time. The TGI in the assay with HT29 colon, in the assay with IGROV1 ovarian, with MDA-MB-231 breast, in the assay with MDA-N, in the assay with NCI-H23 lung and with NCI-H522 lung was above 100 µM in each case. Also, the TGI with NCI/ADR-RES ovarian, with RPMI-8226 leukemia, in the assay on SF-268 CNS, with SK-MEL-5 melanoma, in the assay with SNB-19 CNS and with UACC-257 melanoma was above 100 µM throughout. The TGI with UACC-62 melanoma and with UO-31 renal was above 100 µM each time.
On to `O=c1oc2ccccc2c(-c2ccc(O)cc2)c1Oc1ccc(Cl)cc1`, for which the TGI in the assay on 786-0 renal is 73 µM; in the assay with CAKI-1 renal, above 100 µM; in the assay on CCRF-CEM leukemia it was 52.9 µM; with HCC-2998 colon, 46.1 µM; in the assay with HCT-116 colon it was 35.6 µM; in the assay with HOP-92 NSCLC, 52.9 µM. The TGI stood at 64.1 µM with HT29 colon; 60.8 µM with IGROV1 ovarian; 90.6 µM in the assay with MDA-MB-231 breast; 67.6 µM in the assay with MDA-N; 68.6 µM with NCI-H23 lung; 43.7 µM in the assay with NCI-H522 lung. Moreover, the TGI amounted to 82.3 µM in the assay with NCI/ADR-RES ovarian; 52.4 µM in the assay with RPMI-8226 leukemia; 75.9 µM in the assay with SF-268 CNS; 45.3 µM in the assay on SK-MEL-5 melanoma; 67 µM with SNB-19 CNS; 83.8 µM in the assay with UACC-257 melanoma. The TGI was found to be 63.3 µM in the assay on UACC-62 melanoma and 51.9 µM in the assay with UO-31 renal.
On to `COc1cc(/C=C2/C[C@H]3[C@@H]4CCC5=CC(=O)CC[C@]5(C)[C@H]4CC[C@]3(C)NC2=O)cc(OC)c1OC`, for which the TGI with 786-0 renal is above 100 µM; in the assay on CAKI-1 renal it was above 100 µM; in the assay on CCRF-CEM leukemia, 64.4 µM; with HCC-2998 colon, above 100 µM; in the assay on HCT-116 colon, above 100 µM; in the assay with HOP-92 NSCLC it was 39.6 µM. Also, the TGI is above 100 µM in the assay on HT29 colon; 94.7 µM with IGROV1 ovarian; 83.2 µM with MDA-MB-231 breast; above 100 µM with MDA-N; 57.3 µM with NCI-H23 lung; 34 µM in the assay on NCI-H522 lung. Further, the TGI in the assay with NCI/ADR-RES ovarian is above 100 µM; in the assay with RPMI-8226 leukemia it was above 100 µM; in the assay on SF-268 CNS it was above 100 µM; with SK-MEL-5 melanoma, 52.4 µM; in the assay with SNB-19 CNS, above 100 µM; with UACC-257 melanoma it was above 100 µM. The results for the TGI in the assay with UACC-62 melanoma and in the assay on UO-31 renal were above 100 µM and 26.8 µM, respectively.
For `COC(=O)C1=C(O)C(C(=O)OC)[C@]2(O)[C@H](C(=O)OC)[C@H]1C[C@@H](c1ccccc1OC)[C@H]2C(=O)OC` (stereo not given in full), the TGI in the assay on 786-0 renal is 20.4 µM; in the assay on CAKI-1 renal, 17.5 µM; with CCRF-CEM leukemia, 21.1 µM; with HCC-2998 colon, 22.2 µM; with HCT-116 colon it was 12.9 µM; with HOP-92 NSCLC it was 15.7 µM. In addition, the TGI is 14.6 µM in the assay on HT29 colon; 11.3 µM in the assay on IGROV1 ovarian; 29.7 µM with MDA-MB-231 breast; 4.79 µM with MDA-N; 14.8 µM in the assay with NCI-H23 lung; 5 µM in the assay with NCI-H522 lung. For the same compound, the TGI in the assay on NCI/ADR-RES ovarian is 8.89 µM; in the assay on RPMI-8226 leukemia, 8.82 µM; in the assay with SF-268 CNS, 16.5 µM; with SK-MEL-5 melanoma, 13.2 µM; in the assay with SNB-19 CNS, 19.7 µM; with UACC-257 melanoma, above 51.6 µM. Moreover, the TGI with UACC-62 melanoma was found to be 18.3 µM; in the assay on UO-31 renal, 21.6 µM.
Regarding `NC(=S)SC1=NNC2(C(=O)N1)c1ccccc1-c1ccccc12`, the TGI in the assay with 786-0 renal, with CAKI-1 renal, in the assay on CCRF-CEM leukemia, in the assay on HCC-2998 colon, with HCT-116 colon and in the assay with HOP-92 NSCLC was above 10 µM in each case. Moreover, the TGI in the assay on HT29 colon, in the assay with IGROV1 ovarian, in the assay on MDA-MB-231 breast, with MDA-N, in the assay on NCI-H23 lung and in the assay with NCI-H522 lung was above 10 µM each time. Also, the TGI with NCI/ADR-RES ovarian, in the assay on RPMI-8226 leukemia, in the assay with SF-268 CNS, with SK-MEL-5 melanoma, in the assay with SNB-19 CNS and in the assay with UACC-257 melanoma was above 10 µM each time. In addition, the TGI with UACC-62 melanoma and in the assay with UO-31 renal was above 10 µM each time.
Consider `CNC(=S)NNC1=NCCCN1`, for which the TGI with 786-0 renal, in the assay with CAKI-1 renal, in the assay with CCRF-CEM leukemia, in the assay on HCC-2998 colon, in the assay with HCT-116 colon and in the assay with HOP-92 NSCLC was above 100 µM throughout. The TGI in the assay with HT29 colon, in the assay with IGROV1 ovarian, in the assay with MDA-MB-231 breast, with MDA-N, in the assay on NCI-H23 lung and in the assay on NCI-H522 lung was above 100 µM in each case. Moreover, the TGI in the assay on NCI/ADR-RES ovarian, in the assay with RPMI-8226 leukemia, in the assay on SF-268 CNS, in the assay with SK-MEL-5 melanoma, with SNB-19 CNS and in the assay on UACC-257 melanoma was above 100 µM in each case. Moreover, the TGI in the assay on UACC-62 melanoma and in the assay on UO-31 renal was above 100 µM throughout.
Take `COc1ccc(-c2cn3c(nc4ccccc43)c(C)n2)cc1`: the TGI with 786-0 renal, in the assay with CAKI-1 renal, in the assay with CCRF-CEM leukemia, with HCC-2998 colon, in the assay with HCT-116 colon and in the assay with HOP-92 NSCLC was above 100 µM throughout. For the same compound, the TGI with HT29 colon, in the assay on IGROV1 ovarian, in the assay on MDA-MB-231 breast, with MDA-N, in the assay with NCI-H23 lung and in the assay with NCI-H522 lung was above 100 µM in each case. Also, the TGI in the assay on NCI/ADR-RES ovarian, in the assay on RPMI-8226 leukemia, in the assay with SF-268 CNS, in the assay on SK-MEL-5 melanoma, with SNB-19 CNS and in the assay on UACC-257 melanoma was above 100 µM throughout. The TGI in the assay with UACC-62 melanoma was above 91.5 µM; with UO-31 renal, above 64.6 µM.
